Data taken from ChEMBL document CHEMBL5042486, “Discovery and Preclinical Characterization of BIIB091, a Reversible, Selective BTK Inhibitor for the Treatment of Multiple Sclerosis” (J Med Chem, 2022).
Calls of active or inactive are those of the source. The calls are words filed in the database; no cut-off is given here.

Legend:
Liver [1] = assay: Drugmetabolism in mouse liver microsomes assessed as metabolite formation; assay type: ADME, Microsome
[2] = Kinetic aqueous solubility of the compound in pH 6.8; assay type: physicochemical; details: read-out: Kinetic_solubility
[3] = Kinetic solubility of the compound at pH 1.5 by shake flask method; assay type: physicochemical; details: buffer, read-out: Kinetic_solubility
[4] = Lipophilicity, logD of the compound at pH 7.6 by shake flask assay; assay type: physicochemical; details: buffer
[5] = Clearance in Beagle dog assessed as hepatic blood flow at 1 mg/kg, iv; assay type: ADME, organism-based, Canis lupus familiaris, Liver; details: in vivo
[6] = biological target: Cyclin-dependent kinase-like 2 (Homo sapiens, UniProt Q92772); assay: Binding affinity to wild-type human partial length CDKL2 (M1 to D327 residues) expressed in bacterial expression system by Kinomescan method
[7] = biological target: Mitogen-activated protein kinase kinase kinase 13 (Homo sapiens, UniProt O43283); assay: Binding affinity to wild-type human full length LZK (M1 to W966 residues) expressed in mammalian expression system by Kinomescan method
[8] = biological target: Dual specificity mitogen-activated protein kinase kinase 2 (Homo sapiens, UniProt P36507); assay: Binding affinity to wild-type human full length MEK2 (M1 to V400 residues) expressed in mammalian expression system by Kinomescan method
[9] = biological target: Phosphatidylinositol 4-phosphate 5-kinase type-1 gamma (Homo sapiens, UniProt O60331); assay: Binding affinity to wild-type human partial length PIP5K1C (M1 to T668 residues) expressed in mammalian expression system by Kinomescan method
[10] = biological target: Proto-oncogene tyrosine-protein kinase Src (Homo sapiens, UniProt P12931); assay: Binding affinity to wild-type human partial length SRC (L240 to L536 residues) expressed in bacterial expression system by Kinomescan method
[11] = biological target: Tyrosine-protein kinase Tec (Homo sapiens, UniProt P42680); assay: Binding affinity to wild-type human partial length TEC (L341 to D620 residues) expressed in bacterial expression system by Kinomescan method
[12] = Clearance in cynomolgus monkey assessed as hepatic blood flow at 1 mg/kg, iv; assay type: ADME, organism-based, Macaca fascicularis, Liver; details: in vivo
[13] = Volume of distribution at steady state in Spargue-Dawley rat at 5 mg/kg, po; assay type: ADME, organism-based; details: in vivo
[14] = Volume of distribution at steady state in cynomolgus monkey at 5 mg/kg, po; assay type: ADME, organism-based, Macaca fascicularis; details: in vivo
[15] = Volume of distribution at steady state in Beagle dog at 5 mg/kg, po; assay type: ADME, organism-based, Canis lupus familiaris; details: in vivo
[16] = biological target: Voltage-dependent L-type calcium channel subunit alpha-1C (Homo sapiens, UniProt Q13936); assay: Inhibition of human Cav1.2; assay type: toxicity
[17] = Hepatotoxicity in rat primary cells assessed as change in ATP level for 10 days; assay type: toxicity, cell-based, Hepatocyte; details: hepatocytes, 240 h, time 10 day
[18] = Hepatotoxicity in rat primary cells assessed as change in GSH level for 10 days; assay type: toxicity, cell-based, Hepatocyte; details: hepatocytes, 240 h, time 10 day
[19] = Hepatotoxicity in rat primary cells assessed as change in urea level for 10 days; assay type: toxicity, cell-based, Hepatocyte; details: hepatocytes, 240 h, time 10 day
[20] = Hepatotoxicity in rat primary cells assessed as change in albumin level for 10 days; assay type: toxicity, cell-based, Hepatocyte; details: hepatocytes, 240 h, time 10 day
[21] = biological target: T1, Sodium channel protein type 5 subunit alpha (Homo sapiens, UniProt Q14524); assay: Inhibition of tonic human Nav1.5; assay type: toxicity
[22] = biological target: T1, Sodium channel protein type 5 subunit alpha; assay: Inhibition of phasic human Nav1.5; assay type: toxicity
Cynomolgus monkey [23] = assay: In vivo toxicity in cynomolgus monkey assessed as compound related toxicity at 250 mg/kg after 28 days; assay type: organism-based, Macaca fascicularis; details: 672 h, time 28 day
Cynomolgus monkey [24] = assay: In vivo toxicity in cynomolgus monkey assessed as compound related pathology at 250 mg/kg after 28 days; assay type: organism-based, Macaca fascicularis; details: 672 h, time 28 day
Cynomolgus monkey [25] = assay: In vivo toxicity in cynomolgus monkey assessed as compound related ECG findings at 250 mg/kg after 28 days; assay type: organism-based, Macaca fascicularis; details: 672 h, time 28 day
[26] = Dissociation constant, pKa of the compound; assay type: physicochemical
[27] = biological target: Early activation antigen CD69 (Homo sapiens, UniProt Q07108); assay: Inhibition of CD69 (unknown origin) assessed as reduction in BCR mediated B cell activation; assay type: cell-based
[28] = biological target: Toll-like receptor 9 (Homo sapiens) (UniProt Q9NR96); assay: Inhibition of TLR9 in CpG-B stimulated human PBMC at >10 uM; assay type: cell-based; details: dose microM >10
[29] = biological target: Tumor necrosis factor receptor superfamily member 5 (Homo sapiens) (UniProt P25942); assay: Inhibition of CD40 in IL-4/[…] stimulated human PBMC at >10 uM; assay type: cell-based; details: dose microM >10
[30] = In vivo inhibition of BTK-dependent B cell activation in C57BL/6 mouse immunized with NP-Ficoll assessed as reduction in anti-NP IgM antibody titer at 30 mg/kg, po BID dosed for 10 days; assay type: functional; design: scale not given: the % may be the effect or the level left; details: time 10 day
[31] = In vivo inhibition of BTK-dependent B cell activation in C57BL/6 mouse immunized with NP-Ficoll assessed as reduction in anti-NP IgM antibody titer at 10 mg/kg, po BID dosed for 10 days; assay type: functional; design: scale not given: the % may be the effect or the level left; details: time 10 day
[32] = In vivo inhibition of BTK-dependent B cell activation in C57BL/6 mouse immunized with NP-Ficoll assessed as reduction in anti-NP IgM antibody titer at 1 mg/kg, po BID dosed for 10 days; assay type: functional; design: scale not given: the % may be the effect or the level left; details: time 10 day
[33] = In vivo inhibition of BTK-dependent B cell activation in C57BL/6 mouse immunized with NP-Ficoll assessed as reduction in anti-NP IgM antibody titer at 0.1 mg/kg, po BID dosed for 10 days; assay type: functional; design: scale not given: the % may be the effect or the level left; details: time 10 day
[34] = In vivo inhibition of BTK-dependent B cell activation in C57BL/6 mouse immunized with NP-Ficoll assessed as reduction in anti-NP IgM antibody titer at 0.03 mg/kg, po BID dosed for 10 days; assay type: functional; design: scale not given: the % may be the effect or the level left; details: time 10 day
[35] = In vivo inhibition of BTK-dependent B cell activation in C57BL/6 mouse immunized with NP-Ficoll assessed as reduction in anti-NP IgM antibody titer; assay type: toxicity, organism-based
[36] = Apparent permeability across apical to basolateral side in human Caco2 cells; assay type: ADME, cell-based; details: Caco-2
[37] = Apparent permeability across basolateral to apical side in human Caco2 cells; assay type: ADME, cell-based; details: Caco-2
Cytochrome P450 3A4 = Cytochrome P450 3A4 (Homo sapiens, UniProt P08684); assay: Inhibition of CYP3A4 in human liver microsomes at 10 to 50 uM; assay type: ADME; details: dose 10-50 µM
Cytochrome P450 2C9 = Cytochrome P450 2C9 (Homo sapiens, UniProt P11712); assay: Inhibition of CYP2C9 in human liver microsomes at 10 to 50 uM; assay type: ADME; details: dose 10-50 µM
Cytochrome P450 2C19 = Cytochrome P450 2C19 (Homo sapiens, UniProt P33261); assay: Inhibition of CYP2C19 in human liver microsomes at 10 to 50 uM; assay type: ADME; details: dose 10-50 µM
Cytochrome P450 1A2 = Cytochrome P450 1A2 (Homo sapiens, UniProt P05177); assay: Inhibition of CYP1A2 in human liver microsomes at 10 to 50 uM; assay type: ADME; details: dose 10-50 µM
[38] = In vivo toxicity in cynomolgus monkey assessed as NOAEL after 28 days; assay type: organism-based, Macaca fascicularis; details: time 28 day
Liver [39] = assay: Drugmetabolism in rat liver microsomes assessed as metabolite formation; assay type: ADME, Microsome
Liver [40] = assay: Drugmetabolism in human liver microsomes assessed as metabolite formation; assay type: ADME, Microsome
[41] = Drugmetabolism in mouse hepatocytes assessed as metabolite formation; assay type: ADME, cell-based, Hepatocyte
[42] = Drugmetabolism in rat hepatocytes assessed as metabolite formation; assay type: ADME, cell-based, Hepatocyte
[43] = Drugmetabolism in dog hepatocytes assessed as metabolite formation; assay type: ADME, cell-based, Canis lupus familiaris, Hepatocyte

T1 sequence (Q14524 whole entry): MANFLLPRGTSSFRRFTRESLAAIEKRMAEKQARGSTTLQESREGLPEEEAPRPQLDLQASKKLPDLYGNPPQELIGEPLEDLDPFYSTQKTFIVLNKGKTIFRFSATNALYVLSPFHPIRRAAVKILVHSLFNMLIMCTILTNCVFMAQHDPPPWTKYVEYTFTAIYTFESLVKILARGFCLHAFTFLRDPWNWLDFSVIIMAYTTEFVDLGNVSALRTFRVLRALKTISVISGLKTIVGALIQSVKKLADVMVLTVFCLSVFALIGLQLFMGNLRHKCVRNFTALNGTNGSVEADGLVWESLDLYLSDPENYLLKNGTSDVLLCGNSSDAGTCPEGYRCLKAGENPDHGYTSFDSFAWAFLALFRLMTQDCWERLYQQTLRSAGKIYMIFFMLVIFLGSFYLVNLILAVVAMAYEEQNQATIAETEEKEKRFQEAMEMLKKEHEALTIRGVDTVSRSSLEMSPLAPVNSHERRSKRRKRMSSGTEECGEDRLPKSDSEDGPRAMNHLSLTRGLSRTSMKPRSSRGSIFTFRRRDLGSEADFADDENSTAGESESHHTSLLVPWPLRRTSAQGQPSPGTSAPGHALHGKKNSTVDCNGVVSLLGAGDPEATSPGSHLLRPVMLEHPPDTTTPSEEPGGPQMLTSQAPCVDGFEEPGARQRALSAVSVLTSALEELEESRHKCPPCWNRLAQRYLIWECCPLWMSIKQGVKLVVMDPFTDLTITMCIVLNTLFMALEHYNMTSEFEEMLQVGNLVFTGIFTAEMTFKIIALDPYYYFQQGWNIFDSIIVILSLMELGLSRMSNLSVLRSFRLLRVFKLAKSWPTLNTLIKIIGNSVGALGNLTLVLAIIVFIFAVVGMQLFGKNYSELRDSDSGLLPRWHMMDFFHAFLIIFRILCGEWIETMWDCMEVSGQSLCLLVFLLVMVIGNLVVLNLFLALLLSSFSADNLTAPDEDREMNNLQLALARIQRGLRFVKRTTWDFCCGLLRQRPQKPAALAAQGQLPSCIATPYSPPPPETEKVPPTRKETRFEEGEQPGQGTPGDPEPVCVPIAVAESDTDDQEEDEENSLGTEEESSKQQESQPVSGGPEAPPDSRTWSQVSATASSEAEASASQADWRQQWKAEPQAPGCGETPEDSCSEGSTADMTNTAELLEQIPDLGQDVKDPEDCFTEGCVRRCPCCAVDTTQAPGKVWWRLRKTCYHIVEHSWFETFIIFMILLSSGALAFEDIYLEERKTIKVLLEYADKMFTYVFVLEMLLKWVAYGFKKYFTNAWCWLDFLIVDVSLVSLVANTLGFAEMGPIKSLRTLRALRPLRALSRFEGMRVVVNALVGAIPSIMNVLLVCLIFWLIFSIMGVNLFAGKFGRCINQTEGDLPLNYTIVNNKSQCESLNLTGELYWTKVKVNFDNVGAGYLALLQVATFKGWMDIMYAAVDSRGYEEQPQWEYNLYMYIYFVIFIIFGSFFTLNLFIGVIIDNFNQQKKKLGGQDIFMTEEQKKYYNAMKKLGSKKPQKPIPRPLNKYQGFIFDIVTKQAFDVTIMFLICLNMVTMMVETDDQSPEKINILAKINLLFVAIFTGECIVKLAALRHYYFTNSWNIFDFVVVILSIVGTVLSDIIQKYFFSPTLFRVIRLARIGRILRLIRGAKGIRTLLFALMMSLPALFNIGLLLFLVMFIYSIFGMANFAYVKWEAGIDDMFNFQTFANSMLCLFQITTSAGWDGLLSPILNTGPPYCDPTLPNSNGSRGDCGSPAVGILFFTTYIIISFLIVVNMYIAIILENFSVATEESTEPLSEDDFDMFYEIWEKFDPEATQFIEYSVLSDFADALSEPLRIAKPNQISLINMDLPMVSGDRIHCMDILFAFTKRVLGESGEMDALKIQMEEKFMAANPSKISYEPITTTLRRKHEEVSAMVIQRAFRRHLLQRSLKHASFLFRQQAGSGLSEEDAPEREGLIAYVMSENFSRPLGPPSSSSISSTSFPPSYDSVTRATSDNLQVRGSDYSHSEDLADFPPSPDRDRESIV
Sequence of Mitogen-activated protein kinase kinase kinase 13 (O43283 whole entry, the tested form may be a part): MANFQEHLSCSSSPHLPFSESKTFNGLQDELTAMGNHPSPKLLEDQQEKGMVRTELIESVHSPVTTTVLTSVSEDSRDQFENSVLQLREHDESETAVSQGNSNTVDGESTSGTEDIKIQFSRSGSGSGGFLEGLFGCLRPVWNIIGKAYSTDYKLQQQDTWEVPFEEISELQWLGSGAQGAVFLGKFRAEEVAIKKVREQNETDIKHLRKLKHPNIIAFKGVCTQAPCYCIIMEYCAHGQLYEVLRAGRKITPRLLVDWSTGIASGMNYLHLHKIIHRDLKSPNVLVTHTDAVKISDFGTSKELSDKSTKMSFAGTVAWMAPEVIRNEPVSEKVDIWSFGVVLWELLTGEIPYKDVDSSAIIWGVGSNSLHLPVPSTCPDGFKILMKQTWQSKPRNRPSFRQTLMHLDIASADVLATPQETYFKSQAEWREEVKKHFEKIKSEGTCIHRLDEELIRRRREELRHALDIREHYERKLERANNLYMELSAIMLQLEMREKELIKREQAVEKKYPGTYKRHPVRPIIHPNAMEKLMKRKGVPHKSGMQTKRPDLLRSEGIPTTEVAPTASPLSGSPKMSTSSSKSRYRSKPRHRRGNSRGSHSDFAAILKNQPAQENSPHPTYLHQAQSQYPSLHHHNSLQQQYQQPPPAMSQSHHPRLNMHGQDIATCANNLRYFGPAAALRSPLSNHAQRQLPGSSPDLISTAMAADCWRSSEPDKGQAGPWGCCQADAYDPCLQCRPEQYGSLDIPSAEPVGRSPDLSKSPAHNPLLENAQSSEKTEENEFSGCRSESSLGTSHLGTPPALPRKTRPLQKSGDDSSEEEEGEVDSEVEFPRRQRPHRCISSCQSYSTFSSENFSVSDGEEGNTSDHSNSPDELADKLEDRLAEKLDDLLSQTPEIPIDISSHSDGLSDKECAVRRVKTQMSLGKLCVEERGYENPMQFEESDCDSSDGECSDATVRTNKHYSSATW
Sequence of Cytochrome P450 3A4 (P08684 whole entry): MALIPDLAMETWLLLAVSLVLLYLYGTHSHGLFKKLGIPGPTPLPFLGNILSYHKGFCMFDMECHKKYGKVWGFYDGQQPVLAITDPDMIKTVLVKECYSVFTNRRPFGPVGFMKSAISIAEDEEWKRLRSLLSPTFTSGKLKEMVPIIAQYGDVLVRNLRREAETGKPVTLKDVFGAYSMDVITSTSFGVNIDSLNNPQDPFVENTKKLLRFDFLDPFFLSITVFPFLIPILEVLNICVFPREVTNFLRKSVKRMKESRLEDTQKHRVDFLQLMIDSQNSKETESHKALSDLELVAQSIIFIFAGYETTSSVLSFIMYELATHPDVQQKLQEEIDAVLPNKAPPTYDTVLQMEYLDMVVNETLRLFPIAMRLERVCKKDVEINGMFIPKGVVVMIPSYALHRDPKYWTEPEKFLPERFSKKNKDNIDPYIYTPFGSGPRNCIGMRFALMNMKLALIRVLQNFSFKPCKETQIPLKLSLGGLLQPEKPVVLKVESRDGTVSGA
Sequence of Early activation antigen CD69 (Q07108 whole entry): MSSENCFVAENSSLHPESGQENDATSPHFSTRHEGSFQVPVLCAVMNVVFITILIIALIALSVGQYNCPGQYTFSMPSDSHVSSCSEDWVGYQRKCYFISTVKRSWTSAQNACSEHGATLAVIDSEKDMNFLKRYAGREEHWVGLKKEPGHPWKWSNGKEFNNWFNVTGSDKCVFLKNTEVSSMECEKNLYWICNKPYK
Sequence of Phosphatidylinositol 4-phosphate 5-kinase type-1 gamma (O60331 whole entry, the tested form may be a part): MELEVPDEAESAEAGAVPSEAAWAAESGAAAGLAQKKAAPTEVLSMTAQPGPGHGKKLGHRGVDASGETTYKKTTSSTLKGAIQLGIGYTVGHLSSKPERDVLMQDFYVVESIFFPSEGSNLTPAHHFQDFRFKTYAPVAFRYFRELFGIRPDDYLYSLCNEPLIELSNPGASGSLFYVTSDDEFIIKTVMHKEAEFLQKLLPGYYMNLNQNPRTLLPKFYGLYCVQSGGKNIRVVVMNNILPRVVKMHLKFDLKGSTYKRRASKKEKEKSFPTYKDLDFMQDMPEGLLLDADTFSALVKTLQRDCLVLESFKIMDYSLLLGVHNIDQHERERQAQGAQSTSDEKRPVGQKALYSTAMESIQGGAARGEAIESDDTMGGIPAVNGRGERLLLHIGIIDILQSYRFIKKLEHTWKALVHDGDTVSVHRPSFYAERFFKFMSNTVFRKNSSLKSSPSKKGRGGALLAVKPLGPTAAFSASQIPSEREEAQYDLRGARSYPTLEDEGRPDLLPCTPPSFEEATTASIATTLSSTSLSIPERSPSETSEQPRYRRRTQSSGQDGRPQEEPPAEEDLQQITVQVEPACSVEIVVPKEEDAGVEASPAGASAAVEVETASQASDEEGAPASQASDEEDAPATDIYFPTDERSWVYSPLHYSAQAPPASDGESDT
Sequence of Cyclin-dependent kinase-like 2 (Q92772 whole entry, the tested form may be a part): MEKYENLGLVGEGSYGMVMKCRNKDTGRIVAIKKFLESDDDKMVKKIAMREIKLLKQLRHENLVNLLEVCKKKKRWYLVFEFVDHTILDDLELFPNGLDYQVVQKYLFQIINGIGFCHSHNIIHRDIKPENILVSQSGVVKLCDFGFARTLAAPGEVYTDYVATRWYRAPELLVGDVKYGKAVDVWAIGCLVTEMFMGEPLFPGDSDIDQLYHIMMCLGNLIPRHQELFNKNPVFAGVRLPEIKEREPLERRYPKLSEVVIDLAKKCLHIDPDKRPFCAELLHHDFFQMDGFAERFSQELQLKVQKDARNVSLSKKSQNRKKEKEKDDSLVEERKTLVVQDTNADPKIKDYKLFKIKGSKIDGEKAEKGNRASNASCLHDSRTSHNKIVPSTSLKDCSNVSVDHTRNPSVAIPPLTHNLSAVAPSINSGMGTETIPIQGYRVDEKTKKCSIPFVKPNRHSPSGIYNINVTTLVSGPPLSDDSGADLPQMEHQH

Cn1cc(Nc2nccc(-c3ccc4c(c3)CN(C3COC3)CC[C@H]4NC(=O)c3cn(C(C)(C)C)nn3)n2)cn1 [BIIB-091]
Drug metabolism (Liver [1]): Metabolite_Notdetected | solubility kinetic [2]: > 50 µg/mL | solubility kinetic [3]: > 50 µg/mL | logD [4]: 2.2 | QH [5]: 33% | Kd [6]: 240 nM | Kd [7]: > 3000 nM | Kd [8]: 200 nM | Kd [9]: 420 nM | Kd [10]: 320 nM | Kd [11]: 240 nM | QH [12]: 44% | Vdss [13]: 0.4 L/kg | Vdss [14]: 0.7 L/kg | Vdss [15]: 1.7 L/kg | IC50 [16]: > 25000 nM | Activity [17]: Non-Toxic | Activity [18]: Non-Toxic | Activity [19]: Non-Toxic | Activity [20]: Non-Toxic | IC50 [21]: > 25000 nM | IC50 [22]: > 25000 nM | Activity (Cynomolgus monkey [23]): Non-Toxic | Activity (Cynomolgus monkey [24]): Non-Toxic | Activity (Cynomolgus monkey [25]): Non-Toxic | pKa [26]: 2.8 | IC50 [27]: 71 nM | inhibition [28]: inactive | inhibition [29]: inactive | Activity [30]: 88% | Activity [31]: 77% | Activity [32]: 59% | Activity [33]: 44% | Activity [34]: 34% | ED50 [35]: 1.95 mg/kg | Papp A→B [36]: 1.78 ×10⁻⁶ cm/s | Papp B→A [37]: 37.6 ×10⁻⁶ cm/s | inhibition (INH) (Cytochrome P450 3A4): Not Active | inhibition (INH) (Cytochrome P450 2C9): Not Active | inhibition (INH) (Cytochrome P450 2C19): Not Active | inhibition (INH) (Cytochrome P450 1A2): Not Active | NOAEL at 672 h [38]: 250 mg/kg | Drug metabolism (Liver [39]): Metabolite_Notdetected | Drug metabolism (Liver [40]): Metabolite_Notdetected | Drug metabolism [41]: Metabolite_Notdetected | Drug metabolism [42]: Metabolite_Notdetected | Drug metabolism [43]: Metabolite_Notdetected
